Experimental data taken from patent publication US20250367163A1, “PHARMACEUTICAL COMPOSITION FOR PREVENTING OR TREATING DEGENERATIVE EYE DISEASES” (GLACEUM, INC., priority 2021, published 2025).

Legend:
[1] = system: mitochondrial reactive oxygen species in RPE cells; assay: Mitochondrial reactive oxygen species (MitoSOX) in RPE cells from wet-AMD (CNV) animal model; assay type: in vivo, mouse; conditions: for mitochondrial reactive oxygen species in RPE cells (FIG. 2) / efficacy on mitochondrial reactive oxygen species compared with positive control anti-VEGF agent (FIG. 2): oral, from 6 days before and for 7 days after inducing wet-AMD; for efficacy on mitochondrial reactive oxygen species compared with positive control anti-VEGF agent (FIG. 2): Eylea as positive control
Source text: (§1) RPE cells were isolated from the same model as in Experimental […] changes in mitochondrial reactive oxygen species in the RPE cells were examined through fluorescence microscopy. Specifically, immediately after enucleation of the mouse eye, mitochondria and nuclei were stained using the MitoSOX™ (Invitrogen, #M36008) kit and imaged with a fluorescence microscope at a fluorescence wavelength of 510/580 nm, and changes in reactive oxygen species in the mitochondria were measured.
RPE cells were isolated from the same model as in Experimental Example 3 and stained with MitoSOX, and changes in mitochondrial reactive oxygen species in the RPE cells were examined through fluorescence microscopy. Measurement was performed in the same manner as in Experimental Example 2.
RPE cells were isolated from the same model as in Experimental Example 5 and stained with MitoSOX, and changes in mitochondrial reactive oxygen species in the RPE cells were examined through fluorescence microscopy. Measurement was performed in the same manner as in Experimental Example 2.
RPE cells were isolated from the same model as in Experimental Example 7 and stained with MitoSOX, and changes in mitochondrial reactive oxygen species in the RPE cells were examined through fluorescence microscopy. Measurement was performed in the same manner as in Experimental Example 2.

[2] = system: inflammation-related mRNA in RPE cells; assay: Inflammatory factor mRNA (real-time PCR) in RPE cells from Alu-RNA animal model (dry-AMD); assay type: in vivo, mouse; conditions: oral, from 6 days before and for 7 days after induction of dry-AMD
Procedure: (§2) Male C57BL/6 mice were anesthetized, and a lesion was induced by making a hole in the corneal limbus of the mouse eye and injecting 1.2 μg of Alu-RNA into the subretinal space by a Hamilton syringe. Each of Compound 1-2 and Compound 1-18 was administered orally starting from 6 days before induction of the dry-AMD model, and was administered orally for 7 days after induction of the disease. To evaluate the dry-AMD preventive and therapeutic effects of each of Compound 1-2 and Compound 1-18, the morphology of the lesion was evaluated by fundus photography using TOPCON #TRC-50DX.
RPE cells were isolated from the same model as in Experimental Example 9, and the relative expression level of inflammation-related mRNA was analyzed using real-time PCR. […] 100 pmol of oligo Dt17 primer was added to 1 μg of total RNA which was then incubated at 74° C. for 10 minutes, and then 30 U of RNAsin (RNase inhibitor), 10 U of AMV-RT (avian myeloblastosis virus-reverse transcriptase), and AMV-RT buffer (Promega, Israel) were added thereto and reacted at 42° C. for 2 hours and at 52° C. for 1 hour, thereby synthesizing cDNA from the RNA extracted from the […]. cDNA was amplified using the SYBR Premix Ex Taq kit (Takara Bio, Inc.) and the StepOnePlus Real-time PCR system (Applied Biosystems), and then mRNA expression was measured.

[3] = system: mitochondrial reactive oxygen species in RPE cells; assay: Mitochondrial reactive oxygen species (MitoSOX) in RPE cells from Alu-RNA animal model (dry-AMD); assay type: in vivo, mouse; conditions: oral, from 6 days before and for 7 days after induction of dry-AMD
Source text: as §1, §2
RPE cells were isolated from the same model as in Experimental Example 9 and stained with MitoSOX, and changes in mitochondrial reactive oxygen species in the RPE cells were examined through fluorescence microscopy. Measurement was performed in the same manner as in Experimental Example 2.

[4] = system: retinal lesion (wet-AMD) induced by laser photocoagulation; assay: Lesion volume in laser-induced CNV wet-AMD mouse model (FITC-dextran, Z-stack 3D imaging); assay type: in vivo; conditions: for efficacy on lesion compared with positive control anti-VEGF agent (FIG. 1) / lesion formation / lesion volume (FIG. 1): oral, from 6 days before and for 7 days after inducing wet-AMD; for efficacy on lesion compared with positive control anti-VEGF agent (FIG. 1): Eylea injected into the eye as positive control; for lesion formation / lesion volume (FIG. 1): male C57BL/6 mice
Procedure: Male C57BL/6 mice were anesthetized with zoletil and rompun, and a retinal lesion (wet-AMD) was induced by performing three laser photocoagulations at the 2 o'clock, 6 o'clock, and 10 o'clock positions at on the retina of the mouse eye under a slit-lamp microscope. Each of Compound 1-2 and Compound 1-18 was administered orally starting from 6 days before inducing wet-AMD, and was administered orally for 7 days after inducing the disease. Eylea (Bayer, Germany), used as a positive control, was administered by direct injection into the eye immediately after induction of the disease model.
After weighing each mouse, FITC-dextran (SIGMA, #46944) diluted in saline at a concentration of 5 mg/kg was injected into the tail veins of the mice to which each of Compound 1-2 and Compound 1-18 has been administered for 7 days after inducing the wet-AMD model. 3D images of the lesions were obtained using the Z-stack imaging technique, and the volumes of the lesions on the images were quantitatively measured.
(§3) Changes after administering Compound 1-2 for 7 days after induction of the disease without administration before induction of the disease to the wet-AMD mouse model induced in the same manner as in Experimental Example 1 were analyzed. In the same manner as Experimental Example 1, the image of the lesion was obtained and the volume of the lesion was quantified.
as §3, with “co-administering” for “administering”, “1-2 and the anti-VEGF agent (Eylea)” for “1-2”
as §3, with “1-2 at concentrations of 25, 50 and 100 mg/kg” for “1-2”, “administration of Compound 1-2” for “administration”

[5] = system: lesion in the eyeball, Alu-RNA dry-AMD model; assay: Fundus photography of eyeball lesion in Alu-RNA animal model (dry-AMD); assay type: in vivo, mouse; conditions: oral, from 6 days before and for 7 days after induction of dry-AMD (1.2 μg Alu-RNA subretinal)
Procedure: as §2

RPE cytoskeleton = assay: RPE cell structure (ZO-1 staining) in Alu-RNA animal model (dry-AMD); assay type: in vivo, mouse; conditions: oral, from 6 days before and for 7 days after induction of dry-AMD
Procedure: as §2
RPE cells were isolated from the same model as in Experimental Example 9 and stained for ZO-1, and changes in the structure of the RPE cells were examined under a fluorescence microscope (Olympus SZ51, Tokyo, Japan). Specifically, immediately after enucleation of the mouse eye, the RPE cytoskeleton was stained for zonula occludens-1 (ZO-1) and imaged with a fluorescence microscope through the Z-stack imaging technique, and changes in the RPE cytoskeleton were imaged.

[6] = 25, 50 and 100 mg/kg for 7 days after induction of the disease
[7] = administered for 7 days after induction of the disease, none before induction

Structure (SMILES) | efficacy in reducing mitochondrial reactive oxygen species at 100 mg/kg (FIG. 8) ([1]; 100 mg/kg versus 25 and 50 mg/kg, 7 days after induction of the disease) | mitochondrial reactive oxygen species in RPE cells depending on concentration (FIG. 8) [1, 6] | efficacy on mitochondrial reactive oxygen species compared with positive control anti-VEGF agent (FIG. 4) [1, 7] | mitochondrial reactive oxygen species in RPE cells (FIG. 4) [1, 7] | mitochondrial reactive oxygen species in RPE cells (FIG. 2) [1] | efficacy on mitochondrial reactive oxygen species compared with positive control anti-VEGF agent (FIG. 2) [1] | inflammatory factors in RPE cells, relative mRNA expression (FIG. 12) [2] | mitochondrial reactive oxygen species in RPE cells (FIG. 11) [3] | lesion volume depending on concentration (FIG. 7) [4, 6] | efficacy on lesion compared with positive control anti-VEGF agent (FIG. 3) [4, 7] | lesion formation / lesion volume (FIG. 3) [4, 7] | efficacy on lesion compared with positive control anti-VEGF agent (FIG. 1) [4] | lesion formation / lesion volume (FIG. 1) [4] | lesion in the eyeball by fundus photography (FIG. 9) [5] | RPE cytoskeleton, ZO-1 staining (FIG. 10) (RPE cytoskeleton)
CCOc1ccc(C2COc3c(ccc4c3CCC(C)(C)O4)C2)c(O)c1 (stereo not shown) [Compound 1-2] | highest efficacy | reduced mitochondrial reactive oxygen species in a concentration-dependent manner | efficacy equivalent to that of the positive control anti-VEGF agent | reduced mitochondrial reactive oxygen species | reduced mitochondrial reactive oxygen species | efficacy equivalent to that of the positive control anti-VEGF agent | effectively reduced | reduced mitochondrial reactive oxygen species | reduced in a manner dependent on the concentration | efficacy equivalent to that of the positive control anti-VEGF agent | suppressed formation of the lesion | efficacy equivalent to that of the positive control anti-VEGF agent | inhibited lesion formation | reduced the lesion in the eyeball | restored the damaged RPE cytoskeleton
CCCOc1ccc([C@@H]2COc3c(ccc4c3CCC(C)(C)O4)C2)c(O)c1 [Compound 1-18] |  |  |  |  | reduced mitochondrial reactive oxygen species | efficacy equivalent to that of the positive control anti-VEGF agent |  | reduced mitochondrial reactive oxygen species |  |  |  | efficacy equivalent to that of the positive control anti-VEGF agent | inhibited lesion formation | reduced the lesion in the eyeball | restored the damaged RPE cytoskeleton
